Key:
Fasn gene mRNA [1] = experiment: Secondary screening: expression level of Fasn gene mRNA in isolated hepatocyte derived from wild-type mouse; format: cell-based, mouse (C57BL/6J); conditions: each peptide 100 μg/ml final concentration, 24 hours, with insulin, LXR agonist, amino acid mixture; vs control (10% DMSO)
Procedure: (§1) In the secondary screening, evaluation is performed by measuring the expression level of Fasn gene mRNA using isolated hepatocyte derived from wild-type mouse (C57BL/6J mouse). More specifically, isolated hepatocyte derived from wild-type mouse (C57BL/6J mouse) is plated in 12-well plate in Dulbecco's modified Eagle's medium (DMEM) containing 1% penicillin and streptomycin, and 10% fetal calf serum (FCS) for 8 hours, and then subjected to 16 hours starvation by replacing the medium with Dulbecco's modified Eagle's medium (DMEM) containing 1% penicillin and streptomycin. The medium is recovered and cultured for 24 hours in a medium containing insulin, liver X receptor (LXR) agonist, amino acid mixture, and each peptide (100 μg/ml in the medium at final concentration). In addition, as a group without adding peptide, a sample to which 10% dimethyl sulfoxide (DMSO) is added instead of the peptide is similarly cultured for 24 hours. After removing the medium from each well, mRNA is extracted. The extraction of mRNA is performed with the SV Total RNA Isolation System (Promega, Z3105), reverse transcription from the RNA is performed with the PrimeScript RT reagent kit (Takara, RR0037A), and quantitative PCR is performed with the CFX384 Real-Time System and C1000 Thermal Cycler using the SYBR Select Master Mix kit (Life technologies, 4472908). The methods comply with the instructions for the kit and equipment.

Fasn gene mRNA [2] = experiment: Tertiary screening: Fasn gene expression level with changed amount of peptide; format: cell-based, mouse (C57BL/6J); conditions: for effect of suppressing hepatic lipogenesis: conclusion from the results of primary to tertiary screening; for Fasn gene expression level (significantly reduced compared to the blank): final concentration of the sample 10, 30, 100 μg/ml, otherwise as secondary screening
Procedure: as §1
The amount of peptide to be added is changed (as used herein, the final concentration of the sample is 10, 30, 100 μg/ml, unless otherwise specified), and the expression level of the Fasn gene is evaluated in the same manner as in the secondary screening.

Substance | Fasn gene expression level (significantly reduced compared to the blank) (Fasn gene mRNA [1]) | effect of suppressing hepatic lipogenesis (Fasn gene mRNA [2]) | Fasn gene expression level (significantly reduced compared to the blank) (Fasn gene mRNA [2])
Ala-Gly | significantly suppressed the expression of the Fasn gene | an effect of suppressing hepatic lipogenesis was confirmed | significantly suppressed the expression of the Fasn gene
Ala-His | significantly suppressed the expression of the Fasn gene |  | 
Ala-Tyr | significantly suppressed the expression of the Fasn gene |  | 
Arg-Ala-Val |  | an effect of suppressing hepatic lipogenesis was confirmed | significantly suppressed the expression of the Fasn gene
Arg-Trp-Phe |  | an effect of suppressing hepatic lipogenesis was confirmed | significantly suppressed the expression of the Fasn gene
Asn-Arg-Val |  | an effect of suppressing hepatic lipogenesis was confirmed | significantly suppressed the expression of the Fasn gene
Asn-Gly-Arg |  | an effect of suppressing hepatic lipogenesis was confirmed | significantly suppressed the expression of the Fasn gene
Asp-Phe-Phe |  | an effect of suppressing hepatic lipogenesis was confirmed | significantly suppressed the expression of the Fasn gene
Asp-Val-Phe |  | an effect of suppressing hepatic lipogenesis was confirmed | significantly suppressed the expression of the Fasn gene
Gln-Glu-Glu |  | an effect of suppressing hepatic lipogenesis was confirmed | significantly suppressed the expression of the Fasn gene
Gly-Ser-Leu |  | an effect of suppressing hepatic lipogenesis was confirmed | significantly suppressed the expression of the Fasn gene
His-Ala-Gln |  | an effect of suppressing hepatic lipogenesis was confirmed | significantly suppressed the expression of the Fasn gene
His-Asn | significantly suppressed the expression of the Fasn gene | an effect of suppressing hepatic lipogenesis was confirmed | significantly suppressed the expression of the Fasn gene
His-Ser | significantly suppressed the expression of the Fasn gene | an effect of suppressing hepatic lipogenesis was confirmed | significantly suppressed the expression of the Fasn gene
His-Thr | significantly suppressed the expression of the Fasn gene | an effect of suppressing hepatic lipogenesis was confirmed | significantly suppressed the expression of the Fasn gene
His-Trp | significantly suppressed the expression of the Fasn gene | an effect of suppressing hepatic lipogenesis was confirmed | significantly suppressed the expression of the Fasn gene
Ile-Asp-Arg |  | an effect of suppressing hepatic lipogenesis was confirmed | significantly suppressed the expression of the Fasn gene
Ile-His-Arg |  | an effect of suppressing hepatic lipogenesis was confirmed | significantly suppressed the expression of the Fasn gene
Ile-Ile-Pro |  | an effect of suppressing hepatic lipogenesis was confirmed | significantly suppressed the expression of the Fasn gene

Substance | Fasn gene expression level (significantly reduced compared to the blank) (Fasn gene mRNA [1]) | effect of suppressing hepatic lipogenesis (Fasn gene mRNA [2]) | Fasn gene expression level (significantly reduced compared to the blank) (Fasn gene mRNA [2])
Ile-Val-Ile |  | an effect of suppressing hepatic lipogenesis was confirmed | significantly suppressed the expression of the Fasn gene
Leu-Arg-Asp |  | an effect of suppressing hepatic lipogenesis was confirmed | significantly suppressed the expression of the Fasn gene
Leu-Val-Ile |  | an effect of suppressing hepatic lipogenesis was confirmed | significantly suppressed the expression of the Fasn gene
Lys-Leu-Gly |  | an effect of suppressing hepatic lipogenesis was confirmed | significantly suppressed the expression of the Fasn gene
Lys-Pro-Ile |  | an effect of suppressing hepatic lipogenesis was confirmed | significantly suppressed the expression of the Fasn gene
Phe-Ile-Arg |  | an effect of suppressing hepatic lipogenesis was confirmed | significantly suppressed the expression of the Fasn gene
Pro-Phe-Tyr |  | an effect of suppressing hepatic lipogenesis was confirmed | significantly suppressed the expression of the Fasn gene
Ser-Gly-Glu |  | an effect of suppressing hepatic lipogenesis was confirmed | significantly suppressed the expression of the Fasn gene
Ser-Ser-Val |  | an effect of suppressing hepatic lipogenesis was confirmed | significantly suppressed the expression of the Fasn gene
Trp-Glu | significantly suppressed the expression of the Fasn gene | an effect of suppressing hepatic lipogenesis was confirmed | significantly suppressed the expression of the Fasn gene
Trp-Lys | significantly suppressed the expression of the Fasn gene | an effect of suppressing hepatic lipogenesis was confirmed | significantly suppressed the expression of the Fasn gene
Tyr-Lys | significantly suppressed the expression of the Fasn gene | an effect of suppressing hepatic lipogenesis was confirmed | significantly suppressed the expression of the Fasn gene
Tyr-Ser | significantly suppressed the expression of the Fasn gene | an effect of suppressing hepatic lipogenesis was confirmed | significantly suppressed the expression of the Fasn gene
Tyr-Tyr | significantly suppressed the expression of the Fasn gene | an effect of suppressing hepatic lipogenesis was confirmed | significantly suppressed the expression of the Fasn gene
Val-Ile-Leu |  | an effect of suppressing hepatic lipogenesis was confirmed | significantly suppressed the expression of the Fasn gene
Val-Leu-Gln |  | an effect of suppressing hepatic lipogenesis was confirmed | significantly suppressed the expression of the Fasn gene
Val-Met | significantly suppressed the expression of the Fasn gene | an effect of suppressing hepatic lipogenesis was confirmed | significantly suppressed the expression of the Fasn gene
Val-Phe-Val |  | an effect of suppressing hepatic lipogenesis was confirmed | significantly suppressed the expression of the Fasn gene

Reference: US11058742B2, “Food composition for suppressing hepatic lipogenesis” (FUJI OIL HOLDINGS INC., priority 2019, dated 2021)
